These results are taken from patent US7300645B2, “Oral composition comprising isomalt and remineralizing enhancing agent” (Sunstar Kabushiki Kaisha, priority 1998, dated 2007).

A short description of the experiment: Remineralizing ability 1: bovine enamel block with artificial caries immersed in sugar test solution. The settings on record: sugar 20% in 3.0 mM calcium ion / 1.8 mM phosphate ion, immersed ten days. The protocol: The remineralization effect of the sugars was evaluated in an in vitro test using a bovine tooth according to the procedures described in D. J. White et al., Caries Res., 21, 228 (1987).
1. An enamel section having 4 mm length×3 mm width was obtained from the bovine tooth. The section was embedded in a dental resin to obtain an enamel block.
2. An enamel varnish was applied to a portion of approximately ⅓ of the surface of the enamel block in order not to cause the demineralization of that portion. Then, the enamel block was demineralized with a demineralizing solution containing 50% of saturated hydroxyapatite/0.1M lactic acid/pH 5.0 to prepare an artificial caries.
3. An enamel varnish was applied to a portion of approximately ⅔ of the surface of the treated enamel block in order not to cause the remineralization of that portion. The enamel block was immersed for ten days in a test solution prepared by adding the test sugar into an aqueous solution containing 3.0 mM calcium ion and 1.8 mM phosphate ion so that the concentration of the sugar became 20%, to perform the remineralization treatment.
4. Three thin sections having approximately 500 μm in thickness were prepared from the enamel block. The central portion of the thin sections was ground so that the thickness became approximately 100 μm using a double-side polishing machine.
5. The X-ray photograph was taken of the thin section prepared in the fourth step. The mineral amounts of the demineralized portion and the remineralized portion were calculated based on the brightness of the each portion and a distance from the surface using an image processor. The mineral amount difference between the demineralized and remineralized portions was expressed as a remineralization value. […] A control test was performed in a similar manner to that described above, except that the test solution containing only 3.0 mM calcium ion and 1.8 mM phosphate ion but not containing the sugar was used.
Further, a similar test was performed in which sodium fluoride was added to the test solution to 2 ppm in terms of fluoride ion.

Setting [1] is: sodium fluoride added to 2 ppm fluoride ion.

Turning to `OC[C@@H](O)[C@@H](O)[C@H](O)[C@H](O)CO` [Mannitol], the Remineralization value by setting is: under setting [1], 1377 Vol. % μm; (system not containing fluoride) 640 Vol. % μm.
`OC[C@H]1O[C@H](O[C@H]2O[C@H](CO)[C@@H](O)[C@H](O)[C@H]2O)[C@H](O)[C@@H](O)[C@@H]1O` [Trehalose]: the Remineralization value reads like this: under setting [1], 1205 Vol. % μm; (system not containing fluoride) 715 Vol. % μm.
Turning to `OC[C@@H](O)[C@H](O)[C@@H](O)CO` [Xylitol], the Remineralization value runs as follows: under setting [1], 1636 Vol. % μm; (system not containing fluoride) 416 Vol. % μm.
In the case of `OC[C@@H](O)[C@@H](O)[C@H](O)[C@@H](O)CO` [Sorbitol], the Remineralization value is 1358 Vol. % μm under setting [1] and 645 Vol. % μm (system not containing fluoride).
Take “α-D-glucopyranosyl-1,6-mannitol, its isomer, α-D-glucopyranosyl-1,6-sorbitol or a mixture thereof [Palatinit]”: the Remineralization value is reported as 2374 Vol. % μm under setting [1] and 1057 Vol. % μm (system not containing fluoride).
As to `OC[C@@H](O)[C@@H](O)CO` [Erythritol], the Remineralization value was determined as 1330 Vol. % μm under setting [1] and 602 Vol. % μm (system not containing fluoride).
